Biological target: active FYN (human recombinant, 62.7 kDa) (Homo sapiens, UniProt P06241)
Assay: In vitro kinase assay (Z′-LYTE FRET)
Type: biochemical
Conditions: read-out: IC50(nM) FYN INHIBITION
Description: Assays to determine the kinase inhibitory activity of compounds were performed using an automatic liquid handling device (Microlab STAR Hamilton) and Z′-LYTE™ Kinase Assay Platform, a Fluorescence Resonance Energy Transfer (FRET)-based assay platform compatible with high-throughput screening (HTS) applications. The assay employs a fluorescence-based, coupled-enzyme format and utilizes the differential sensitivity of phosphorylated and non-phosphorylated peptides to proteolytic cleavage.
All reagents were diluted in reaction buffer and the kinase reaction was carried out in a total volume of 10 μl, for 60 minutes at 25° C. The 0% Phosphorylation (i.e. no ATP) and 100% Phosphorylation (i.e. synthetically phosphorylated peptide supplied) Assay Controls, included in each plate, allowed to calculate the percent phosphorylation achieved in the specific reaction well. The 0% Inhibition and 0% Phosphorylation (i.e. 100% Inhibition) Controls define the dynamic range in the screen. At the end of incubation, a secondary reaction (the Development Reaction) started by adding 5 μl of Development Reagent, containing a site-specific protease that recognizes and cleaves non-phosphorylated peptides, and was interrupted after 60 minutes with 5 μl/sample of Stop Reagent.
The compounds were tested in a range of concentrations 10^−6-10^−9 M.
Results are expressed as percentage of inhibition and the IC50 values were calculated by non-linear curve fitting using GraphPad™ Prism software.

active FYN (human recombinant, 62.7 kDa), sequence (P06241 whole entry): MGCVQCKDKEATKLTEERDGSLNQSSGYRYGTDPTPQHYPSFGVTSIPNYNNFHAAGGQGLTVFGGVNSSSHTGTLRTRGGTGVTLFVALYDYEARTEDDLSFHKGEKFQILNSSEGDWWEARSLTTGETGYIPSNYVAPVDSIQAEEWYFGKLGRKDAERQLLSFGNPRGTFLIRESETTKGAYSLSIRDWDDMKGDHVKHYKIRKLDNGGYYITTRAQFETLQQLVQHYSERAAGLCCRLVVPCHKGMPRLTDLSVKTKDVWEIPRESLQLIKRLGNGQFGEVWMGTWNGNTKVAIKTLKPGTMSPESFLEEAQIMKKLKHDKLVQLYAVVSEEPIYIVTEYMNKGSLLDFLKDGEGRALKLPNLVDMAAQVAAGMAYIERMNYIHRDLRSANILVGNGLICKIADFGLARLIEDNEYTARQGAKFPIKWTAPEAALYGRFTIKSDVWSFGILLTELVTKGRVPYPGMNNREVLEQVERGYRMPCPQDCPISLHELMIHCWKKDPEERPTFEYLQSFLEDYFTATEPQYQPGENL

Row | Compound | IC50 [nM]
1 | COc1ccccc1C(=O)Nc1ccc(CN2CCN(c3nccc(Nc4cc(C5CC5)[nH]n4)n3)CC2)cc1 [Compound 7, N-(4-((4-(4-((5-cyclopropyl-1H-pyrazol-3-yl)amino)pyrimidin-2-yl)piperazin-1-yl)methyl)phenyl)-2-methoxy-benzamide] | 150
2 | CS(=O)(=O)c1cccc(C(=O)Nc2ccc(CN3CCN(c4nccc(Nc5cc(C6CC6)[nH]n5)n4)CC3)cc2)c1 [Compound 16, N-(4-((4-(4-((5-cyclopropyl-1H-pyrazol-3-yl)amino)pyrimidin-2-yl)piperazin-1-yl)methyl)phenyl)-3-(methylsulfonyl)benzamide] | 122
3 | CCc1cc(NC(=O)c2ccccc2F)ccc1CN1CCN(c2nc(C)cc(Nc3cc(C4CC4)[nH]n3)n2)CC1 [Compound 19, N-(4-((4-(4-((5-cyclopropyl-1H-pyrazol-3-yl)amino)-6-methylpyrimidin-2-yl)piperazin-1-yl)methyl)-3-ethylphenyl)-2-fluorobenzamide] | 1020
4 | O=C(Nc1ccc(CN2CCN(c3nccc(Nc4cc(C5CC5)[nH]n4)n3)CC2)cc1)c1ccc(F)cc1F [Compound 11, N-(4-((4-(4-((5-cyclopropyl-1H-pyrazol-3-yl)amino)pyrimidin-2-yl)piperazin-1-yl)methyl)phenyl)-2,4-difluoro-Benzamide] | 16
5 | O=C(Nc1ccc(CN2CCN(c3nccc(Nc4cc(C5CC5)[nH]n4)n3)CC2)cc1)c1ccc(C(F)(F)F)cc1 [Compound 10, N-(4-((4-(4-((5-cyclopropyl-1H-pyrazol-3-yl)amino)pyrimidin-2-yl)piperazin-1-yl)methyl)phenyl)-4-(trifluoromethyl)benzamide] | 950
6 | Cc1nc(C(=O)Nc2ccc(CN3CCN(c4nccc(Nc5cc(C6CC6)[nH]n5)n4)CC3)cc2)co1 [Compound 20, N-(4-((4-(4-((5-cyclopropyl-1H-pyrazol-3-yl)amino)pyrimidin-2-yl)piperazin-1-yl)methyl)phenyl)-2-methyloxazole-4-carboxamide] | 86

Other lines, results leading:

Row | IC50 [nM] | Compound
7 | 37 | CC1CCCN1C(=O)Nc1ccc(CN2CCN(c3nccc(Nc4cc(C5CC5)[nH]n4)n3)CC2)cc1 (centres unmarked) [Compound 48, N-(4-((4-(4-((5-cyclopropyl-1H-pyrazol-3-yl)amino)pyrimidin-2-yl)piperazin-1-yl)methyl)phenyl)-2-methylpyrrolidine-1-carboxamide]
8 | > 1000 | O=C(Nc1ccc(OC(F)(F)F)cc1)c1ccc(CN2CCN(c3nccc(Nc4cc(C5CC5)[nH]n4)n3)CC2)cc1 [Compound 37, 4-((4-(4-((5-cyclopropyl-1H-pyrazol-3-yl)amino)pyrimidin-2-yl)piperazin-1-yl)methyl)-N-(4-(trifluoromethoxy)phenyl)benzamide]
9 | 282 | O=C(Nc1ccc(CN2CCN(c3nccc(Nc4cc(C5CC5)[nH]n4)n3)CC2)cc1)c1cnccn1 [Compound 35, N-(4-((4-(4-((5-cyclopropyl-1H-pyrazol-3-yl)amino)pyrimidin-2-yl)piperazin-1-yl)methyl)phenyl)pyrazine-2-carboxamide]
10 | 280 | O=S(=O)(Nc1ccc(CN2CCN(c3nccc(Nc4cc(C5CC5)[nH]n4)n3)CC2)cc1)c1ccccc1F [Compound 40, N-(4-((4-(4-((5-cyclopropyl-1H-pyrazol-3-yl)amino)pyrimidin-2-yl)piperazin-1-yl)methyl)phenyl)-2-fluorobenzene-sulfonamide]
11 | 237 | COc1ncccc1C(=O)Nc1ccc(CN2CCN(c3nccc(Nc4cc(C5CC5)[nH]n4)n3)CC2)cc1 [Compound 28, N-(4-((4-(4-((5-cyclopropyl-1H-pyrazol-3-yl)amino)pyrimidin-2-yl)piperazin-1-yl)methyl)phenyl)-2-methoxy-nicotinamide]

Source: patent US10125121B2, “FYN kinase inhibitors” (ROTTAPHARM BIOTECH S.R.L., priority 2015, dated 2018)
